Measurements taken from patent US20150094474A1, “AGRICULTURAL CHEMICALS” (Redx Pharma Ltd., priority 2012, published 2015).

What was measured:
Assay type in all cases: in vivo
black ants, Lasius niger = assay: Insect repellent bioassay, black ants (treated tile arena); settings: 20% concentration
Protocol: (§1) A laboratory bioassay was conducted to screen 5 compounds (Icaridin (38); and 4 icaridin analogues: 39, 40a, 42a and 41) for repellent activity against houseflies, Musca domestica, black ants, Lasius niger, German cockroaches, Blattella germanica, and bedbugs, Cimex lectularius. Compounds were diluted in a mixture of ethanol and water and assessed at a 20% concentration. A mixture of ethanol/water only negative control was also included for comparative purposes. These were applied onto an aluminium foil tile, which was placed into one half of an arena. The other half of the arena contained an untreated aluminium foil tile. The number of insects present in the treated and untreated area was assessed every 5 minutes for a total of 20 minutes.
Black ants, Lasius niger, were field collected from the Cardiff area. Mixed age worker ants were used in the experiments.
(§2) Temperature was maintained between 24.2 and 24.6° C. and relative humidity ranged between 27.5% and 43.5%, throughout the experimental period.
(§3) The tested compounds were diluted in ethanol and water to a concentration of 20% (w/w: compound 20%, ethanol 40%, water 40%). The concentrates were prepared at room temperature and stirred for approximately 15 minutes using a vortex mixer. A negative control (mixture of ethanol:water 50:50) was also included in the testing for comparative purposes. Treatments were applied directly on to a non porous surface (aluminium foil), using a Gilson pipette at a rate of 0.225 ml per 225 cm^2 surface tile. A small piece of acetate was used to evenly spread the treatments across the entire surface of the tile.
(§4) For the testing against ants, cockroaches and bedbugs: A clear plastic container was used measuring approximately 34 cm long×21 cm wide×20 cm high. This was divided into two halves. The treated aluminium foil was placed in one half and the other half contained untreated foil. Food (sugar cube for black ants and bran pellet for cockroaches) and water (damp cotton wool) were placed in each half where appropriate. Twenty ants/cockroaches and ten bedbugs were placed in the centre of the arena. The number of insects in each half was assessed at 5 minute intervals for a total of 20 minutes.
(§5) Three to six replicates were performed for each treatment, for each species.

[1] = test system: bedbugs, Cimex lectularius; assay: Insect repellent bioassay, bedbugs (treated tile arena); settings: 20% concentration
Protocol: as §1
Bedbugs, Cimex lectularius, were obtained from a laboratory culture maintained at CimexStore (Chepstow, UK). Mixed age and sex adult bedbugs were used in the experiments (see deviation below).
as §2, §3, §4, §5

[2] = test system: German cockroaches, Blattella germanica; assay: Insect repellent bioassay, German cockroaches (treated tile arena); settings: 20% concentration
Protocol: as §1
(§6) Houseflies, Musca domestica, and German cockroaches, Blattella germanica, were obtained from a laboratory culture maintained at i2LResearch. Mixed sex and age adult insects (flies were aged 3-6 days old) were used in the experiments.
as §2, §3, §4, §5

[3] = test system: houseflies, Musca domestica; assay: Insect repellent bioassay, houseflies (treated tile arena); settings: 20% concentration
Protocol: as §1, §6, §2, §3
For the testing against houseflies: A clear plastic container was used measuring approximately 34 cm long×21 cm wide×20 cm high, with a piece of netting and lid on top. This was divided into two halves using an additional tile with a small slit measuring approximately 2.5 cm×5 cm cut at a height of […] from the base, so that the insects could freely travel between halves. A treated and untreated tile was placed either side of the dividing panel. Twenty flies were placed in the half with the treated surface. Sugar and water was placed in both halves. The number of insects crossing from the treated area into the untreated area was assessed at 5 minute intervals for a total of 20 minutes.
as §5

barley = assay: Herbicidal bioassay, barley (% necrosis)
Summary of the method: (§7)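 Lolium perenne, barley, peas and Chinese cabbage at 2-4 true leaf stage sprayed simultaneously with a Potter tower, compounds in DMSO at six concentrations (0.05% to 0.0001%). Phytotoxicity scored as % necrosis per EPPO PP1/135 at set intervals; five replicates per treatment and species; DMSO and water controls.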

peas = assay: Herbicidal bioassay, peas (% necrosis)
Summary of the method: as §7

CCC(C)OC(=O)N1CCCCC1CC=O (centres unmarked) [Compound 39, sec-Butyl 2-(2-oxoethyl)piperidine-1-carboxylate]
insects on the treated tile (black ants, Lasius niger; TIME 5 mins): B (between 11% and 25% were on the treated tile)
insects on the treated tile (black ants, Lasius niger; TIME 10 mins): B (between 11% and 25% were on the treated tile)
insects on the treated tile (black ants, Lasius niger; TIME 15 mins): B (between 11% and 25% were on the treated tile)
insects on the treated tile (black ants, Lasius niger; TIME 20 mins): B (between 11% and 25% were on the treated tile)
insects on the treated tile ([1]; TIME 5 mins): A (10% or less of the insects were on the treated tile)
insects on the treated tile ([1]; TIME 20 mins): A (10% or less of the insects were on the treated tile)
insects on the treated tile ([2]; TIME 5 mins): B (between 11% and 25% were on the treated tile)
insects on the treated tile ([2]; TIME 10 mins): B (between 11% and 25% were on the treated tile)
insects on the treated tile ([2]; TIME 15 mins): B (between 11% and 25% were on the treated tile)
insects on the treated tile ([2]; TIME 20 mins): B (between 11% and 25% were on the treated tile)
insects moving towards the treated tile ([3]; TIME 5 mins): B (between 11% and 25% were on the treated tile)
insects moving towards the treated tile ([3]; TIME 10 mins): C (greater than 25% were on the treated tile)
insects moving towards the treated tile ([3]; TIME 15 mins): C (greater than 25% were on the treated tile)
insects moving towards the treated tile ([3]; TIME 20 mins): C (greater than 25% were on the treated tile)

COC(=O)c1ccc(CNS(C)(=O)=O)cc1S(=O)(=O)NC(=O)Nc1nc(OC)cc(OC)n1 [Mesosulfuron (6), Mesosulfuron methyl ester, reference compound]
Sum of % necrosis in barley (barley; Dose 0.000001, Day 0): C (less than 50% necrosis)
Sum of % necrosis in barley (barley; Dose 0.000001, Day 1): C (less than 50% necrosis)
Sum of % necrosis in barley (barley; Dose 0.000001, Day 3): C (less than 50% necrosis)
Sum of % necrosis in barley (barley; Dose 0.000001, Day 7): C (less than 50% necrosis)
Sum of % necrosis in barley (barley; Dose 0.000001, Day 10): C (less than 50% necrosis)
Sum of % necrosis in barley (barley; Dose 0.000001, Day 14): C (less than 50% necrosis)
Sum of % necrosis in barley (barley; Dose 0.000005, Day 0): C (less than 50% necrosis)
Sum of % necrosis in barley (barley; Dose 0.000005, Day 1): C (less than 50% necrosis)
Sum of % necrosis in barley (barley; Dose 0.000005, Day 3): C (less than 50% necrosis)
Sum of % necrosis in barley (barley; Dose 0.000005, Day 7): C (less than 50% necrosis)
Sum of % necrosis in barley (barley; Dose 0.000005, Day 10): C (less than 50% necrosis)
Sum of % necrosis in barley (barley; Dose 0.000005, Day 14): C (less than 50% necrosis)
Sum of % necrosis in barley (barley; Dose 0.00001, Day 0): C (less than 50% necrosis)
Sum of % necrosis in barley (barley; Dose 0.00001, Day 1): C (less than 50% necrosis)
Sum of % necrosis in barley (barley; Dose 0.00001, Day 3): C (less than 50% necrosis)
Sum of % necrosis in barley (barley; Dose 0.00001, Day 7): C (less than 50% necrosis)
Sum of % necrosis in barley (barley; Dose 0.00001, Day 10): C (less than 50% necrosis)
Sum of % necrosis in barley (barley; Dose 0.00001, Day 14): C (less than 50% necrosis)
Sum of % necrosis in barley (barley; Dose 0.00005, Day 0): C (less than 50% necrosis)
Sum of % necrosis in barley (barley; Dose 0.00005, Day 1): C (less than 50% necrosis)
Sum of % necrosis in barley (barley; Dose 0.00005, Day 3): C (less than 50% necrosis)
Sum of % necrosis in barley (barley; Dose 0.00005, Day 7): C (less than 50% necrosis)
Sum of % necrosis in barley (barley; Dose 0.00005, Day 10): C (less than 50% necrosis)
Sum of % necrosis in barley (barley; Dose 0.00005, Day 14): C (less than 50% necrosis)
Sum of % necrosis in barley (barley; Dose 0.0001, Day 0): C (less than 50% necrosis)
Sum of % necrosis in barley (barley; Dose 0.0001, Day 1): C (less than 50% necrosis)
Sum of % necrosis in barley (barley; Dose 0.0001, Day 3): C (less than 50% necrosis)
Sum of % necrosis in barley (barley; Dose 0.0001, Day 7): C (less than 50% necrosis)
Sum of % necrosis in barley (barley; Dose 0.0001, Day 10): B (50%-80% necrosis)
Sum of % necrosis in barley (barley; Dose 0.0001, Day 14): B (50%-80% necrosis)
Sum of % necrosis in barley (barley; Dose 0.0005, Day 0): C (less than 50% necrosis)
Sum of % necrosis in barley (barley; Dose 0.0005, Day 1): C (less than 50% necrosis)
Sum of % necrosis in barley (barley; Dose 0.0005, Day 3): C (less than 50% necrosis)
Sum of % necrosis in barley (barley; Dose 0.0005, Day 7): C (less than 50% necrosis)
Sum of % necrosis in barley (barley; Dose 0.0005, Day 10): B (50%-80% necrosis)
Sum of % necrosis in barley (barley; Dose 0.0005, Day 14): B (50%-80% necrosis)
Sum of % necrosis in Pea (peas; Dose 0.000001, Day 0): C (less than 50% necrosis)
Sum of % necrosis in Pea (peas; Dose 0.000001, Day 1): C (less than 50% necrosis)
Sum of % necrosis in Pea (peas; Dose 0.000001, Day 3): A (over 80% necrosis)
Sum of % necrosis in Pea (peas; Dose 0.000001, Day 7): A (over 80% necrosis)
Sum of % necrosis in Pea (peas; Dose 0.000001, Day 10): A (over 80% necrosis)
Sum of % necrosis in Pea (peas; Dose 0.000001, Day 14): A (over 80% necrosis)
Sum of % necrosis in Pea (peas; Dose 0.000005, Day 0): C (less than 50% necrosis)
Sum of % necrosis in Pea (peas; Dose 0.000005, Day 1): C (less than 50% necrosis)
Sum of % necrosis in Pea (peas; Dose 0.000005, Day 3): B (50%-80% necrosis)
Sum of % necrosis in Pea (peas; Dose 0.000005, Day 7): A (over 80% necrosis)
Sum of % necrosis in Pea (peas; Dose 0.000005, Day 10): A (over 80% necrosis)
Sum of % necrosis in Pea (peas; Dose 0.000005, Day 14): A (over 80% necrosis)
Sum of % necrosis in Pea (peas; Dose 0.00001, Day 0): C (less than 50% necrosis)
Sum of % necrosis in Pea (peas; Dose 0.00001, Day 1): C (less than 50% necrosis)
Sum of % necrosis in Pea (peas; Dose 0.00001, Day 3): A (over 80% necrosis)
Sum of % necrosis in Pea (peas; Dose 0.00001, Day 7): A (over 80% necrosis)
Sum of % necrosis in Pea (peas; Dose 0.00001, Day 10): A (over 80% necrosis)
Sum of % necrosis in Pea (peas; Dose 0.00001, Day 14): A (over 80% necrosis)
Sum of % necrosis in Pea (peas; Dose 0.00005, Day 0): C (less than 50% necrosis)
Sum of % necrosis in Pea (peas; Dose 0.00005, Day 1): C (less than 50% necrosis)
Sum of % necrosis in Pea (peas; Dose 0.00005, Day 3): B (50%-80% necrosis)
Sum of % necrosis in Pea (peas; Dose 0.00005, Day 7): A (over 80% necrosis)
Sum of % necrosis in Pea (peas; Dose 0.00005, Day 10): A (over 80% necrosis)
Sum of % necrosis in Pea (peas; Dose 0.00005, Day 14): A (over 80% necrosis)
Sum of % necrosis in Pea (peas; Dose 0.0001, Day 0): C (less than 50% necrosis)
Sum of % necrosis in Pea (peas; Dose 0.0001, Day 1): C (less than 50% necrosis)
Sum of % necrosis in Pea (peas; Dose 0.0001, Day 3): A (over 80% necrosis)
Sum of % necrosis in Pea (peas; Dose 0.0001, Day 7): A (over 80% necrosis)
Sum of % necrosis in Pea (peas; Dose 0.0001, Day 10): A (over 80% necrosis)
Sum of % necrosis in Pea (peas; Dose 0.0001, Day 14): A (over 80% necrosis)
Sum of % necrosis in Pea (peas; Dose 0.0005, Day 0): C (less than 50% necrosis)
Sum of % necrosis in Pea (peas; Dose 0.0005, Day 1): C (less than 50% necrosis)
Sum of % necrosis in Pea (peas; Dose 0.0005, Day 3): C (less than 50% necrosis)
Sum of % necrosis in Pea (peas; Dose 0.0005, Day 7): A (over 80% necrosis)
Sum of % necrosis in Pea (peas; Dose 0.0005, Day 10): A (over 80% necrosis)
Sum of % necrosis in Pea (peas; Dose 0.0005, Day 14): A (over 80% necrosis)
